From US9248187B2, “Oxadiazole inhibitors of leukotriene production for combination therapy” (Boehringer Ingelheim International GmbH, priority 2012, dated 2016)
Values joined by “and” are separate entries in the source; they are usually repeats but may differ in a detail not shown here. Equal entries are not always repeated.

Experiments:
[1] = system: atherosclerotic plaque in the descending aorta; experiment: 13 week HF/HC diet rabbit model of atherosclerosis, on top of simvastatin; assay type: in vivo, NZW rabbits; settings: compound 115 2.5 mg/kg and simvastatin 2.5 mg/kg; p=0.05
Description: The objective of the study is to determine if the compounds of Formula I provide additional reduction in atherosclerosis development in high fat/high cholesterol (HF/HC) fed rabbits on top of simvastatin compared to simvastatin alone. Treatment with a statin is considered the standard of care for atherosclerosis clinically. In order to determine if the anti-atherosclerotic effect observed in rabbits is effective on top of statin treatment, rabbits were treated with compound 115 (Table 1) in combination with simvastatin and the effects on atherosclerosis reduction with both control and statin treatment alone were compared. […] The rabbits were fed 125 g of rabbit chow each day and both food consumption and body weights were measured throughout the study period. […] The extent of atherosclerosis development was measured in the descending aorta after the vessels were pinned out on the silicone surface of metal trays and stained with Sunan IV stain. […] The percentage of plaque area of the descending aorta was determined. […] Atherosclerotic lesion formation was quantified by image analysis software using ImagePro Plus software. The mean of thee different sections 100 μm apart was determined. The mean value of each parameter was calculated for each different treatment group and compared to the control value. […]

[2] = system: proteinuria; settings: clinical trial, human glomerulonephritis; cited from earlier work
[3] = target: T1, recombinant human FLAP protein (Homo sapiens, UniProt P20292); experiment: FLAP binding assay (SPA, displacement of [125I]L-691,831); settings: @1000 nM
T1 construct: made in house; host or cells: Sf9 insect cells (membrane fraction, 100,000 x g pellet)
T1 sequence (P20292 1-161): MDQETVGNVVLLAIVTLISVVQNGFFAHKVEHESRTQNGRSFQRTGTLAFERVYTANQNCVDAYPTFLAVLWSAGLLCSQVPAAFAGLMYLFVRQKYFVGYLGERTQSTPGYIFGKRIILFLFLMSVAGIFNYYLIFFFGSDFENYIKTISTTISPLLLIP
Description: Assessment of Biological Properties 1. Binding Assay
Cell pellets produced from sf9 insect cells expressing recombinant human FLAP protein are resuspended in buffer A [15 mM Tris-HCl (pH 7.5), 2 mM MgCl2, 0.3 mM EDTA, 1 mM PMSF]. The cells are lysed with a Dounce homogenizer and the material is centrifuged at 10,000×g for 10 minutes. The supernatant is then collected and centrifuged at 100,000×g for 60 minutes. To prepare membrane protein for an assay, an aliquot of the 100,000×g pellet is resuspended in 1 ml of buffer A, Dounce homogenized, and finally subjected to polytron mixing (30 seconds). Membrane protein (25 μl, 5 μg) is mixed with WGA SPA beads (Amersham) and stirred for 1 h.

CN(C)C(=O)Cn1cc(-c2nc([C@@](C)(c3ccc(-c4cnc(N)nc4)cc3)C3CC3)no2)cn1 (single isomer, unassigned) [Example 115]
further reduction in plaque area compared to simvastatin alone [1]: 32% and 34%

CC(C)(C)Sc1c(CC(C)(C)C(=O)O)n(Cc2ccc(Cl)cc2)c2ccc(OCc3ccc4ccccc4n3)cc12 [MK-591]
effect on proteinuria [2]: reduce proteinuria

CC(C)C(C)(c1ccc(-c2cnc(N)nc2)cc1)c1noc(O)n1 (stereo not drawn) [Example 88, 3-{1-[4-(2-Amino-pyrimidin-5-yl)-phenyl]-1,2-dimethyl-propyl}-[1,2,4]oxadiazol-5-ol]
FLAP binding % inh [3]: 51% inh@1000 nM
